Key:
[1] = target: T1, human recombinant sEH (Homo sapiens, UniProt P34913); experiment: Fluorescence-based sEH activity assay (PHOME substrate), human enzyme; assay type: biochemical; conditions: for IC50: dose-dependent assay, read-out: Human sEH Inhibition IC50
T1 construct: purchased Cayman Chemical 10011671
T1 sequence (P34913 1-555): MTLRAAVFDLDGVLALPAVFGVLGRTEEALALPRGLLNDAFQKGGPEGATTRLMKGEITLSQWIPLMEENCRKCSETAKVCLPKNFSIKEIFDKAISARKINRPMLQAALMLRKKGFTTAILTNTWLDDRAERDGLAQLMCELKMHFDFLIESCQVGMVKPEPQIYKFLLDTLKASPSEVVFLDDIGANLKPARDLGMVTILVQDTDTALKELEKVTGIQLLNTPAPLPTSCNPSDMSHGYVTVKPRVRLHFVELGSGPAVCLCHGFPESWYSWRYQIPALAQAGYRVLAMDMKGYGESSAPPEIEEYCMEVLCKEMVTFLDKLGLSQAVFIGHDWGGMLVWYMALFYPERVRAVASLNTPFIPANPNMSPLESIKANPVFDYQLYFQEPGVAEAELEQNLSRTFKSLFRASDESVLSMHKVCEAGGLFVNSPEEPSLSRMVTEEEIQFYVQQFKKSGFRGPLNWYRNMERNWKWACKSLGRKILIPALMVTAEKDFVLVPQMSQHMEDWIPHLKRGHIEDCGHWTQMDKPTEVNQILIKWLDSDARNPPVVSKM
Procedure: A fluorescence-based sEH activity assay provided a convenient method for screening human epoxide hydrolase inhibitors. The assay utilized (3-Phenyl-oxiranyl)-acetic acid cyano-(6-methoxy-naphthalen-2-yl)-methyl ester (PHOME) as a substrate. […] The inhibitory function of the compounds on sEH activity was tested as detailed in the product manual from Cayman Chemical. Briefly, 3 mL sEH assay buffer (10×) was diluted with 27 mL HPLC-grade water. This final assay buffer, 25 mM bis-tris (pH 7.0), was used in the assay and for the dilution of the soluble epoxide hydrolase (sEH) enzyme. Amounts of 12 μL each of human and mouse recombinant sEH were thawed on ice. Prior to assaying, 588 μL cold assay buffer was added directly to the enzyme vial. An amount of 190 μL assay buffer and 5 μL solvent (40% DMSO in assay buffer) were added to the background wells. In the 100% initial activity wells, 185 μL assay buffer, 5 μL sEH, and 5 μL solvent were added. In inhibitor wells, 185 μL assay buffer, 5 μL solution of the synthesized compounds, and 5 μL of recombinant enzyme solution were added.
Average fluorescence (AF) of the background wells and 100% initial activity in the wells and of each of the inhibitors were determined. The background AF was subtracted from the 100% initial activity and inhibitor AFs. The % sEH activity is calculated as (inhbitited AF/% 100 initial activity) × 100.
Multiple concentrations of the inhibitors were tested followed by plotting of the percent activity as a function of inhibitor concentration to determine the IC50 values.

[2] = Plasma protein binding (equilibrium dialysis), human; assay type: in vitro ADME; conditions: for fraction unbound at 5 h, 1 μM: plasma (non-diluted), pH 7.4, read-out: Plasma Protein Binding Human % of Bound Comp
Procedure: (§1) The assay was performed in a multiple-use 96-well dialysis unit (HTD96b dialyzer). Each individual well unit consisted of 2 chambers separated by a vertically aligned dialysis membrane of predetermined pore size (MWCO 12–14 kDa). An amount of 120 μL of non-diluted plasma spiked with the compound (1 μM, final DMSO concentration 1%) was added to one chamber, and the same volume of PBS buffer with pH 7.4 was added to the other chamber. The HTD96b dialyzer was covered with adhesive sealing film and incubated at 37 °C and shaken at 100 rpm for 5 h. For sample preparation, an aliquot of the content of each chamber was mixed with the same volume of the blank opposite matrix. To define the non-specific loss of the compound during this assay, a standard solution was created by mixing an aliquot of spiked plasma with a blank buffer without dialysis. Two aliquots of the standard solution were incubated at 37 °C and shaken at 100 rpm for 5 h (recovery samples). The other two aliquots were immediately diluted with acetonitrile and stored at 4 °C until LC–MS/MS analysis (stability samples). All samples were diluted 5-fold with 100% methanol with subsequent plasma protein sedimentation by centrifuging at 6000 rpm for 5 min. Supernatants were analyzed using the HPLC system coupled with a tandem mass spectrometer.

[3] = Plasma protein binding (equilibrium dialysis), mouse; assay type: in vitro ADME; conditions: for fraction unbound at 5 h, 1 μM: plasma (non-diluted), pH 7.4, read-out: Plasma Protein Binding Mouse % of Bound Comp (converted)
Procedure: as §1

[4] = Microsomal stability; assay type: in vitro ADME; conditions: pH 7.4, human liver microsomes; for remaining at 1 h, 2 μM: read-out: Human Metabolic Stability % Remaining after 1 h; for half-life at 2 μM: read-out: Human Metabolic Stability Half Life
Procedure: Human microsomal incubations were carried out in 96-well plates in 5 aliquots of 30 μL each (one for each time point). Human liver microsomal incubation medium comprised of phosphate buffer (100 mM, pH 7.4), MgCl2 (3.3 mM), NADPH (3 mM), glucose-6-phosphate (5.3 mM), glucose-6-phosphate dehydrogenase (0.67 units/mL) with 0.42 mg of liver microsomal protein per ml. In the control reactions, the NADPH-cofactor system was substituted with phosphate buffer. Test compounds (2 μM, final solvent concentration 1.6%) were incubated with microsomes at 37 °C and shaken at 100 rpm. Each reaction was performed in duplicates. Five time points over 40 min were analyzed. The reactions were stopped by adding 5 volumes of methanol containing the internal standard to the incubation aliquots, followed by protein sedimentation by centrifuging at 5500 rpm for 4 min. Supernatants were analyzed using the HPLC system coupled with a tandem mass spectrometer.

Question: For `O=C(NC12CC3CC(CC(C3)C1)C2)NS(=O)(=O)c1ccc(OC(F)(F)F)cc1` [Compound 4f], which “Human sEH % Inhibition” value [1] is on record?
Answer: The value was 96.05%.

Question: And the IC50 [1]?
Answer: Its IC50 is 1.69 nM.

Question: What about the “compound stability in plasma during dialysis” value [2] of the same molecule?
Answer: The value was 99%.

Question: And the fraction unbound at 5 h, 1 μM [2]?
Answer: Its fraction unbound at 5 h, 1 μM is less than 0.001.

Question: And the “compound recovery/stability in mouse plasma after 5 h incubation (%)” value [3]?
Answer: The value was 106%.

Question: And the fraction unbound at 5 h, 1 μM [3]?
Answer: The fraction unbound at 5 h, 1 μM was 0.02.

Question: What about the remaining at 1 h, 2 μM [4] of the same molecule?
Answer: The remaining at 1 h, 2 μM was 80%.

Question: And the half-life at 2 μM [4]?
Answer: The half-life at 2 μM was 1.77 h.

Question: Which “Human sEH % Inhibition” value [1] does the source give for `O=C(NC12CC3CC(CC(C3)C1)C2)NS(=O)(=O)c1ccc2ccccc2c1` [Compound 4l] here?
Answer: The value was 96.79%.

Question: And the IC50 [1]?
Answer: The IC50 was 1.21 nM.

Question: What about the “compound stability in plasma during dialysis” value [2] of the same molecule?
Answer: Its value is 99%.

Question: What about the fraction unbound at 5 h, 1 μM [2] of the same molecule?
Answer: Its fraction unbound at 5 h, 1 μM is less than 0.001.

Question: What about the “compound recovery/stability in mouse plasma after 5 h incubation (%)” value [3] of the same molecule?
Answer: Its value is 88%.

Question: What about the fraction unbound at 5 h, 1 μM [3] of the same molecule?
Answer: Its fraction unbound at 5 h, 1 μM is 0.02.

Question: And the remaining at 1 h, 2 μM [4]?
Answer: The remaining at 1 h, 2 μM was 45%.

Question: And the half-life at 2 μM [4]?
Answer: Its half-life at 2 μM is 0.557 h.
